From PubChem BioAssay AID1963958 (Molecular Pharmacology Branch, DTP, NCI, 2024)
Values belong to the molecule of their own block, whether it stands above or below them.

System: MDA-MB-231 multicell spheroids, viability
Assay: Anticancer human tumor MDA-MB-231 cell line growth inhibition [PI3K];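 also: spheroids exposed to agents for seven days before reading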;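 as to viability, T/C: percent of vehicle control luminescence with DMSO treated spheroids as 100%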
Settings: for IC50: curve of first compound; for viability, T/C: stronger effect = lower value
How it was run: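 Stroma-containing spheroids: tumor line, pooled-donor HUVEC, hMSC. Treatments: targeted agents with PI3K inhibitors. Dosing: clinically relevant, half-log spacing, 10 microM ceiling without known Cmax. Read-out: cell viability.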

[1] = second compound 0.0316 µM, first compound 0.0316 µM
[2] = second compound 0.0316 µM, first compound 0.1 µM
[3] = second compound 0.0316 µM, first compound 0.316 µM
[4] = second compound 0.0316 µM, first compound 1 µM
[5] = second compound 0.0316 µM, first compound 3.16 µM
[6] = second compound 0.0316 µM, first compound 10 µM
[7] = second compound 0.1 µM, first compound 0.0316 µM
[8] = second compound 0.1 µM, first compound 0.1 µM
[9] = second compound 0.1 µM, first compound 0.316 µM
[10] = second compound 0.1 µM, first compound 1 µM
[11] = second compound 0.1 µM, first compound 3.16 µM
[12] = second compound 0.1 µM, first compound 10 µM
[13] = second compound 0.316 µM, first compound 0.0316 µM
[14] = second compound 0.316 µM, first compound 0.1 µM
[15] = second compound 0.316 µM, first compound 0.316 µM
[16] = second compound 0.316 µM, first compound 1 µM
[17] = second compound 0.316 µM, first compound 3.16 µM
[18] = second compound 0.316 µM, first compound 10 µM
[19] = second compound 1 µM, first compound 0.0316 µM
[20] = second compound 1 µM, first compound 0.1 µM
[21] = second compound 1 µM, first compound 0.316 µM
[22] = second compound 1 µM, first compound 1 µM
[23] = second compound 1 µM, first compound 3.16 µM
[24] = second compound 1 µM, first compound 10 µM
[25] = second compound 3.16 µM, first compound 0.0316 µM
[26] = second compound 3.16 µM, first compound 0.1 µM
[27] = second compound 3.16 µM, first compound 0.316 µM
[28] = second compound 3.16 µM, first compound 1 µM
[29] = second compound 3.16 µM, first compound 3.16 µM
[30] = second compound 3.16 µM, first compound 10 µM
[31] = second compound 10 µM, first compound 0.0316 µM
[32] = second compound 10 µM, first compound 0.1 µM
[33] = second compound 10 µM, first compound 0.316 µM
[34] = second compound 10 µM, first compound 1 µM
[35] = second compound 10 µM, first compound 3.16 µM
[36] = second compound 10 µM, first compound 10 µM

IC50 (second compound 0.0316 µM): > 10 µM | IC50 (second compound 0.1 µM): 7.62 µM | IC50 (second compound 0.316 µM): 5.67 µM | IC50 (second compound 1 µM): 1.7 µM | IC50 (second compound 3.16 µM): 0.847 µM | IC50 (second compound 10 µM): 0.23 µM
SMILES: C#Cc1c(F)ccc2cc(O)cc(-c3ncc4c(N5CC6CCC(C5)N6)nc(OCC56CCCN5CC(F)C6)nc4c3F)c12 (centres undefined) + Cc1nc(NC(=O)N2CCCC2C(N)=O)sc1-c1ccnc(C(C)(C)C(F)(F)F)c1
viability, T/C [1]: 106% | viability, T/C [2]: 96% | viability, T/C [3]: 101% | viability, T/C [4]: 68.3% | viability, T/C [5]: 75.6% | viability, T/C [6]: 54.9% | viability, T/C [7]: 88.8% | viability, T/C [8]: 87.6% | viability, T/C [9]: 85.4% | viability, T/C [10]: 73% | viability, T/C [11]: 65.5% | viability, T/C [12]: 45.2% | viability, T/C [13]: 77.7% | viability, T/C [14]: 82.8% | viability, T/C [15]: 69.4% | viability, T/C [16]: 60.4% | viability, T/C [17]: 62% | viability, T/C [18]: 42% | viability, T/C [19]: 74.1% | viability, T/C [20]: 69.8% | viability, T/C [21]: 67.3% | viability, T/C [22]: 55.2% | viability, T/C [23]: 43.3% | viability, T/C [24]: 33.3% | viability, T/C [25]: 69.6% | viability, T/C [26]: 65.5% | viability, T/C [27]: 53.4% | viability, T/C [28]: 49.6% | viability, T/C [29]: 42% | viability, T/C [30]: 28% | viability, T/C [31]: 64.2% | viability, T/C [32]: 58.4% | viability, T/C [33]: 45.3% | viability, T/C [34]: 36.9% | viability, T/C [35]: 32% | viability, T/C [36]: 18.1%

IC50 (second compound 0.0316 µM): > 10 µM | IC50 (second compound 0.1 µM): > 10 µM | IC50 (second compound 0.316 µM): > 10 µM | IC50 (second compound 1 µM): > 10 µM | IC50 (second compound 3.16 µM): 6.06 µM | IC50 (second compound 10 µM): 3.95 µM
SMILES: C=CC(=O)N1CCN(c2nc(=O)n(-c3c(C)ccnc3C(C)C)c3nc(-c4c(O)cccc4F)c(F)cc23)C(C)C1 (centres undefined) + Cc1nc(NC(=O)N2CCCC2C(N)=O)sc1-c1ccnc(C(C)(C)C(F)(F)F)c1
viability, T/C [1]: 97.5% | viability, T/C [2]: 98.3% | viability, T/C [3]: 96.4% | viability, T/C [4]: 103% | viability, T/C [5]: 120% | viability, T/C [6]: 102% | viability, T/C [7]: 86.5% | viability, T/C [8]: 85.4% | viability, T/C [9]: 93.2% | viability, T/C [10]: 108% | viability, T/C [11]: 109% | viability, T/C [12]: 88.4% | viability, T/C [13]: 74.8% | viability, T/C [14]: 79.1% | viability, T/C [15]: 79% | viability, T/C [16]: 82.8% | viability, T/C [17]: 87.9% | viability, T/C [18]: 66.9% | viability, T/C [19]: 63% | viability, T/C [20]: 66.5% | viability, T/C [21]: 68.2% | viability, T/C [22]: 71.1% | viability, T/C [23]: 62.1% | viability, T/C [24]: 48.5% | viability, T/C [25]: 66.3% | viability, T/C [26]: 66.8% | viability, T/C [27]: 68% | viability, T/C [28]: 65.4% | viability, T/C [29]: 60.1% | viability, T/C [30]: 42.1% | viability, T/C [31]: 67.6% | viability, T/C [32]: 60.3% | viability, T/C [33]: 60% | viability, T/C [34]: 58.5% | viability, T/C [35]: 54.7% | viability, T/C [36]: 36.7%
